Assay results as given in patent US20250230193A1, “CYCLIC COMPOUND HAVING SELECTIVE KRAS INHIBITORY EFFECT ON HRAS AND NRAS” (CHUGAI SEIYAKU KABUSHIKI KAISHA, priority 2022, published 2025).
Where a SMILES comes first, the peptide text is derived from it. Bridges are numbered along the chain shown (N, C = ends). [ ]: non-standard residue; d: D form. The star is where a group is joined. hPhe(3-Cl-4-CF3) = N[C@@H](CCc1ccc(C(F)(F)F)c(Cl)c1)C(=O)O; NPrPhe(4-CF3) = CCCN[C@@H](Cc1ccc(C(F)(F)F)cc1)C(=O)O; NMeGly(cPent) = CN[C@H](C(=O)O)C1CCCC1; NMeD = CN[C@@H](CC(=O)O)C(=O)O; NMeL = CN[C@@H](CC(C)C)C(=O)O; Morpholide = C1CN(*)CCO1; Ac5c = NC1(C(=O)O)CCCC1; Aze = O=C(O)[C@@H]1CCN1; Sar = CNCC(=O)O

What was measured:
[1] = biological target: GDP-bound NRAS wild-type protein (Homo sapiens, UniProt P01111); assay: Binding to NRAS by surface plasmon resonance (SPR), Single Cycle Kinetics; conditions: SPR; for NRAS/KRAS (ratio of KD value with respect to NRAS to KD value with respect to KRAS) / NRAS/KRAS (ratio of KD value for NRAS to KD value for KRAS): GDP-bound NRAS wild-type vs GDP-bound KRAS wild-type; for NRAS/KRAS (ratio of KD value with respect to GDP-bound NRAS wild-type protein to KD value with respect to KRAS): GDP-bound wild-type proteins
Chain of GDP-bound NRAS wild-type protein (P01111 whole entry): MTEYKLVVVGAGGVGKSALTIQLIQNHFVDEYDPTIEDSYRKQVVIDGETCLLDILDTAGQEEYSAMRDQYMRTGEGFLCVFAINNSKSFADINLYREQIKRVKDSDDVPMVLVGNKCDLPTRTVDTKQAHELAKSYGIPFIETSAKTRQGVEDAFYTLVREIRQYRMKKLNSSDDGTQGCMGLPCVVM

[2] = biological target: GDP-bound HRAS wild-type protein (Homo sapiens, UniProt P01112); assay: Binding to HRAS by surface plasmon resonance (SPR), Single Cycle Kinetics; conditions: SPR; for HRAS/KRAS (ratio of KD value with respect to HRAS to KD value with respect to KRAS) / HRAS/KRAS (ratio of KD value for HRAS to KD value for KRAS): GDP-bound HRAS wild-type vs GDP-bound KRAS wild-type; for HRAS/KRAS (ratio of KD value with respect to GDP-bound HRAS wild-type protein to KD value with respect to KRAS): GDP-bound wild-type proteins
Chain of GDP-bound HRAS wild-type protein (P01112 whole entry): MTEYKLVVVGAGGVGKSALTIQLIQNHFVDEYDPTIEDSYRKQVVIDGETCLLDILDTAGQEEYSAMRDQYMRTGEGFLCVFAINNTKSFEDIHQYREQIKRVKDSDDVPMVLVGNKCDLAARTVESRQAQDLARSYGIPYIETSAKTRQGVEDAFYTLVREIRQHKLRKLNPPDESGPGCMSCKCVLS

CCO[C@@H]1C[C@H]2C(=O)NC3(CC(C)(C)C3)C(=O)N(C)[C@@H](C(CC)CC)C(=O)N(C)[C@H](C(=O)N(C)C)CC(=O)N(C)[C@@H](CC3CCC3)C(=O)N[C@@H]([C@@H](C)CC)C(=O)N(C)CC(=O)N(C)[C@H]3C/C=C\CCN(C3=O)[C@@H](Cc3ccc(C)cc3)C(=O)N(C)CC(=O)N[C@@H](CCc3cc(F)c(C(F)(F)F)c(F)c3)C(=O)N2C1 [PP2151]
NRAS/KRAS (ratio of KD value with respect to NRAS to KD value with respect to KRAS) [1]: A (a compound having 10 or more and less than 20 is denoted as A)
HRAS/KRAS (ratio of KD value with respect to HRAS to KD value with respect to KRAS) [2]: A (a compound having 10 or more and less than 20 is denoted as A)

CCO[C@@H]1C[C@H]2C(=O)NC3(CC(C)(C)C3)C(=O)N(C)[C@@H](C(CC)CC)C(=O)N(C)[C@H](C(=O)N(C)C)CC(=O)N(C)[C@@H](CC3CCC3)C(=O)N[C@@H]([C@@H](C)CC)C(=O)N(C)CC(=O)N(C)[C@H]3C/C=C\CCN(C3=O)[C@@H](Cc3ccc(C(F)(F)F)cc3)C(=O)N(C)CC(=O)N[C@@H](CCc3ccc(C(F)(F)F)c(Cl)c3)C(=O)N2C1 [PP2138]
NRAS/KRAS (ratio of KD value with respect to NRAS to KD value with respect to KRAS) [1]: A (a compound having 10 or more and less than 20 is denoted as A)
HRAS/KRAS (ratio of KD value with respect to HRAS to KD value with respect to KRAS) [2]: A (a compound having 10 or more and less than 20 is denoted as A)

CCCN(C)C(=O)[C@@H]1CC(=O)N(C)[C@@H](COCC)C(=O)N[C@@H]([C@@H](C)CC)C(=O)N(C)CC(=O)N(C)[C@H]2C/C=C\CCN(C2=O)[C@@H](Cc2ccc(C(F)(F)F)cc2)C(=O)N(C)CC(=O)N[C@@H](CCc2cc(F)c(C(F)(F)F)c(F)c2)C(=O)N2C[C@H](OCC)C[C@H]2C(=O)NC2(CCC2)C(=O)N(C)[C@@H](C2CCCC2)C(=O)N1C [PP1988]
NRAS/KRAS (ratio of KD value for NRAS to KD value for KRAS) [1]: A (a compound having 10 or more and less than 20 is denoted as A)
HRAS/KRAS (ratio of KD value for HRAS to KD value for KRAS) [2]: A (a compound having 10 or more and less than 20 is denoted as A)

CCCN1C(=O)[C@@H]2CCN2C(=O)[C@@H]2CCN2C(=O)[C@H]([C@@H](C)CC)NC(=O)[C@H](CC(C)C)N(C)C(=O)C[C@@H](C(=O)N2CCOCC2)N(C)C(=O)[C@H](C2CCCC2)N(C)C(=O)C2(CCCC2)NC(=O)[C@@H]2CCCN2C(=O)[C@H](CCc2ccc(C(F)(F)F)c(Cl)c2)NC(=O)CN(C)C(=O)[C@@H]1Cc1ccc(C(F)(F)F)cc1 [PP0168] ([NMeL]I[Aze][Aze][NPrPhe(4-CF3)][Sar][hPhe(3-Cl-4-CF3)]P[Ac5c][NMeGly(cPent)][NMeD]-Morpholide; lactam N-11)
NRAS/KRAS (ratio of KD for GDP-bound NRAS wild-type to KD for KRAS) ([1]; KD ratio NRAS/KRAS): C (A compound having a KD ratio of 0.1 or more and less than 3 is denoted as C)
HRAS/KRAS (ratio of KD for GDP-bound HRAS wild-type to KD for KRAS) ([2]; KD ratio HRAS/KRAS): B (a compound having 3 or more and less than 10 is denoted as B)

CC[C@H](C)[C@@H]1NC(=O)[C@@H]2CCCc3ccc(cc3)C[C@@H](C(=O)N(C)CC(=O)N[C@@H](CCc3ccc(C(F)(F)F)c(OC)c3)C(=O)N3C[C@H](OC4CCCC4)C[C@H]3C(=O)NC3(CC(C)(C)C3)C(=O)N(C)[C@@H](C3CCCC3)C(=O)N(C)[C@H](C(=O)N(C)CC)CC(=O)N2C)N2CC/C=C\C[C@@H](C2=O)N(C)C(=O)CN(C)C1=O [PP3086]
NRAS/KRAS (ratio of KD value with respect to GDP-bound NRAS wild-type protein to KD value with respect to KRAS) ([1]; KD ratio NRAS/KRAS): B (a compound having 3 or more and less than 10 is denoted as B)
HRAS/KRAS (ratio of KD value with respect to GDP-bound HRAS wild-type protein to KD value with respect to KRAS) ([2]; KD ratio HRAS/KRAS): B (a compound having 3 or more and less than 10 is denoted as B)

CCC[C@H]1C(=O)N[C@@H](C2CCCC2)C(=O)N(C)CC(=O)N(C)[C@H]2C/C=C\CCN(C2=O)[C@@H](Cc2ccc(C)cc2)C(=O)N(C)CC(=O)N[C@@H](CCc2ccc(C(F)(F)F)c(OC)c2)C(=O)N2CC3(CC3)C[C@H]2C(=O)NC2(CC(C)(C)C2)C(=O)N(C)[C@@H](CC(C)(C)C)C(=O)N(C)[C@H](C(=O)N(C)C)CC(=O)N1C [PP3010]
NRAS/KRAS (ratio of KD value with respect to GDP-bound NRAS wild-type protein to KD value with respect to KRAS) ([1]; KD ratio NRAS/KRAS): B (a compound having 3 or more and less than 10 is denoted as B)
HRAS/KRAS (ratio of KD value with respect to GDP-bound HRAS wild-type protein to KD value with respect to KRAS) ([2]; KD ratio HRAS/KRAS): B (a compound having 3 or more and less than 10 is denoted as B)

CCC[C@H]1C(=O)N[C@@H]([C@@H](C)CC)C(=O)N(C)CC(=O)N(C)[C@H]2C/C=C\CCN(C2=O)[C@@H](Cc2ccc(C)cc2)C(=O)N(C)CC(=O)N[C@@H](CCc2ccc(C(F)(F)F)c(OC)c2)C(=O)N2C[C@H](C)C[C@H]2C(=O)NC2(CC(C)(C)C2)C(=O)N(C)[C@@H](C2CCCC2)C(=O)N(C)[C@H](C(=O)N(C)CC)CC(=O)N1C [PP1891]
NRAS/KRAS (ratio of KD value for NRAS to KD value for KRAS) [1]: A (a compound having 10 or more and less than 20 is denoted as A)
HRAS/KRAS (ratio of KD value for HRAS to KD value for KRAS) [2]: A (a compound having 10 or more and less than 20 is denoted as A)
